Test results: patent publication US10913771B2, “Peptide for preventing or treating inflammatory diseases and use thereof” (KINE SCIENCES Co., Ltd., priority 2016, dated 2021)
Several values for one entry are separate records, joined by “and”; a condition that tells them apart may be missing. Equal entries are not always repeated. Ends that are not written are not given here.

Tests used:
[1] = Evaluation of toxicity: mortality and change in body weight after intraperitoneal administration; type: in vivo; conditions: individual mouse
Protocol: In Example 3, in order to confirm the toxicity of the peptide of the present invention, the PSP dimer or the PSP trimer was intraperitoneally administered to mouse at various concentrations (0.1 μmole, 1 μmole, and 10 μmole), and then the mortality and a change in body weight of each mouse were measured. On the other hand, as a control, a non-administration group (Normal) and a PBS-treated group (PBS) were used.

[2] = system: collagen-induced arthritis (CIA) mouse model; assay: Arthritis progression index in collagen-induced arthritis mouse model; type: in vivo, DBA/1J mouse
Protocol: In Example 2, using a collagen-induced arthritis mouse model in the following document, a therapeutic effect of a PSP dimer or trimer for a representative inflammatory disease, rheumatoid arthritis was confirmed (Nat Protoc. 2007; 2(5):1269-75.).
A collagen-induced arthritis (CIA) mouse model was prepared as follows, as an autoimmune disease-based arthritis model with characteristics similar to human rheumatoid arthritis.
First, a bovine type II collagen (Chondrex Corporation, USA) and a Freund's complete adjuvant (Chondrex Corporation, USA) were mixed at a ratio of 1:1 and emulsified, and then 50 μl of the emulsified collagen solution was injected intradermally into the tail of a 6-week-old DBA/1J mouse to induce primary immunization. At two weeks after the primary immunization, the bovine type II collagen and the Freund's complete adjuvant were mixed at a ratio of 1:1 and emulsified, and then 50 μl of the emulsified collagen solution was injected intradermally into the tail of the mouse again to induce secondary immunization (boosting). After the secondary immunization, the peptide of the present invention (the PSP dimer (1 μmole) or the PSP trimer (1 μmole)) was administered intraperitoneally three times a week from the next day, and as a comparative experimental group, a PSP monomer-treated group and as a control (Vehicle control), a PBS-treated group were used, respectively. The preparation process of the collagen-induced arthritis mouse model and the administration time of the peptide were schematically illustrated in FIG. 1.
In order to investigate the development of arthritis progression according to the peptide treatment of the present invention, the deepening degree of arthritis with time was measured by evaluating an arthritis progression index. Two observers who were unaware of the specific experimental conditions evaluated progression of arthritis three times a week. In this case, the arthritis progression index was evaluated by 0 to 4 scores per leg according to an arthritis progression evaluation standard by Rossoliniec and the like in Table 2 below to be represented by a total of 0 to 16 scores (a sum of four legs), and thereafter, two observers calculated an average value of the evaluated results to digitize the severity of arthritis.
Methotrexate (MTX), one of drugs which are used as arthritis therapeutic agents in a current clinical practice, had excellent anti-inflammatory and arthritis therapeutic effects as an immunodepressant, but may have side effects such as toxicity to normal cells, oral ulcer, alopecia, interstitial pneumonia, bone marrow suppression, and the like. As a result, the methotrexate is known as a drug that needs to pay close attention after medication with sufficient medication counseling. In Example 2, the arthritis therapeutic effect with the peptide of the present invention and methotrexate (1 mg/kg) was evaluated and compared with the arthritic progression index by using the same method as Example 2-2.

## PSPPSP [PSP dimer, PSPPSP]
[1]; PSP dimer 0.1 μmol intraperitoneal, day 15
  Body weight: 20.7 g and 20.2 g and 21.6 g and 21 g and 20.1 g and 20.9 g and 19.9 g
[1]; PSP dimer 0.1 μmol intraperitoneal, day 18
  Body weight: 20.7 g and 21.1 g (2×) and 22.7 g and 22.4 g and 21.2 g and 21.8 g
[1]; PSP dimer 0.1 μmol intraperitoneal, day 22
  Body weight: 23.3 g and 21.9 g and 23.5 g and 22.9 g and 21.4 g and 23.1 g and 22.3 g
[1]; PSP dimer 0.1 μmol intraperitoneal, day 25
  Body weight: 22.7 g and 21.4 g and 22.1 g and 23 g and 21.1 g and 22.5 g and 21.7 g
[1]; PSP dimer 0.1 μmol intraperitoneal, day 29
  Body weight: 23.2 g (2×) and 21.7 g (2×) and 22.7 g and 23.3 g and 19.5 g
[1]; PSP dimer 0.1 μmol intraperitoneal, day 32
  Body weight: 23.5 g and 22.1 g and 23.3 g and 22.7 g and 19.3 g and 23.9 g and 21 g
[1]; PSP dimer 0.1 μmol intraperitoneal, day 36
  Body weight: 23.7 g and 18.6 g (2×) and 22.4 g and 22.3 g and 24.2 g and 20.2 g
[1]; PSP dimer 1 μmol intraperitoneal, day 18
  Body weight: 23.3 g and 20 g and 22.5 g and 22.1 g and 20.8 g and 21.8 g and 21.1 g
[1]; PSP dimer 1 μmol intraperitoneal, day 22
  Body weight: 24.4 g and 20.7 g and 22.5 g (3×) and 23.2 g and 21.5 g
[1]; PSP dimer 1 μmol intraperitoneal, day 25
  Body weight: 23.9 g and 19.6 g and 21.8 g and 22.9 g and 21.6 g and 22.3 g and 22.4 g
[1]; PSP dimer 1 μmol intraperitoneal, day 29
  Body weight: 23.9 g and 20.1 g and 21.8 g and 23.4 g and 21.3 g and 22.7 g and 23.1 g
[1]; PSP dimer 1 μmol intraperitoneal, day 36
  Body weight: 23 g (2×) and 20.7 g and 23.4 g and 21.4 g and 19.4 g and 24.5 g
[1]; PSP dimer 10 μmol intraperitoneal, day 15
  Body weight: 19.5 g
[1]; PSP dimer 10 μmol intraperitoneal, day 18
  Body weight: 20.8 g

## PSPPSPPSP [PSP trimer, PSPPSPPSP]
[1]; PSP trimer 0.1 μmol intraperitoneal, day 15
  Body weight: 20.75 g (2×) and 20.64 g and 21.54 g and 19.43 g and 22.27 g and 21.68 g
[1]; PSP trimer 0.1 μmol intraperitoneal, day 17
  Body weight: 21 g and 20.6 g and 21.5 g and 19.1 g and 22.3 g and 21.3 g and 21.7 g
[1]; PSP trimer 0.1 μmol intraperitoneal, day 20
  Body weight: 21.2 g and 21.3 g and 20.8 g and 19.6 g and 22.9 g and 21.9 g and 21.7 g
[1]; PSP trimer 0.1 μmol intraperitoneal, day 24
  Body weight: 22.2 g and 21.7 g and 22.6 g and 19.9 g and 23.8 g and 22.8 g and 21.9 g
[1]; PSP trimer 0.1 μmol intraperitoneal, day 27
  Body weight: 21.3 g and 21.4 g and 22.7 g and 19.5 g and 23.6 g and 22.2 g and 21.8 g
[1]; PSP trimer 0.1 μmol intraperitoneal, day 31
  Body weight: 20.3 g and 21.3 g and 21 g (2×) and 18.6 g and 24.3 g and 23.3 g
[1]; PSP trimer 0.1 μmol intraperitoneal, day 34
  Body weight: 19.7 g and 20.5 g and 19.8 g and 18.1 g and 24.1 g and 23 g and 21.3 g
[1]; PSP trimer 1 μmol intraperitoneal, day 15
  Body weight: 20.76 g and 21.15 g (2×) and 21.62 g and 21.02 g and 20.4 g and 19.02 g
[1]; PSP trimer 1 μmol intraperitoneal, day 17
  Body weight: 21.5 g (2×) and 21.1 g and 22.2 g and 21.7 g and 21.3 g and 19.1 g
[1]; PSP trimer 1 μmol intraperitoneal, day 20
  Body weight: 22.3 g and 21.6 g and 22.9 g and 22.1 g and 21.8 g and 20.8 g and 19.2 g
[1]; PSP trimer 1 μmol intraperitoneal, day 24
  Body weight: 23.2 g and 22.6 g and 23.8 g and 22.7 g (2×) and 21.3 g and 20.2 g
[1]; PSP trimer 1 μmol intraperitoneal, day 27
  Body weight: 22.3 g and 22.4 g and 23.8 g and 22.8 g and 22.6 g and 21.5 g and 19.8 g
[1]; PSP trimer 1 μmol intraperitoneal, day 31
  Body weight: 21.4 g (2×) and 22.7 g and 22.8 g and 22.5 g and 21.7 g and 19.9 g
[1]; PSP trimer 1 μmol intraperitoneal, day 34
  Body weight: 20.1 g and 22.6 g and 21.1 g and 19.9 g and 20.7 g and 22 g and 19.3 g
[1]; PSP trimer 10 μmol intraperitoneal, day 15
  Body weight: 21.9 g
[1]; PSP trimer 10 μmol intraperitoneal, day 17
  Body weight: 21.2 g

## CN(Cc1cnc2nc(N)nc(N)c2n1)c1ccc(C(=O)N[C@@H](CCC(=O)O)C(=O)O)cc1 [MTX, methotrexate]
[2]; Table 6, day 14, comparison of PSP dimer with methotrexate (1 mg/kg), 0 to 16 scores
  arthritis progression index: 0.0
[2]; Table 6, day 17, comparison with methotrexate (1 mg/kg)
  arthritis progression index: 0.0
[2]; Table 6, day 20, comparison with methotrexate (1 mg/kg)
  arthritis progression index: 0.0
[2]; Table 6, day 22, comparison with methotrexate (1 mg/kg)
  arthritis progression index: 0.0
[2]; Table 6, day 25, comparison with methotrexate (1 mg/kg)
  arthritis progression index: 0.0
[2]; Table 6, day 27, comparison with methotrexate (1 mg/kg)
  arthritis progression index: 1.0
[2]; Table 6, day 29, comparison with methotrexate (1 mg/kg)
  arthritis progression index: 0.8
[2]; Table 6, day 31, comparison with methotrexate (1 mg/kg)
  arthritis progression index: 2.8
[2]; Table 6, day 35, comparison with methotrexate (1 mg/kg)
  arthritis progression index: 3.2
[2]; Table 7, day 14, comparison of PSP trimer with methotrexate (1 mg/kg), 0 to 16 scores
  arthritis progression index: 0.0
[2]; Table 7, day 17, comparison with methotrexate (1 mg/kg)
  arthritis progression index: 0.0
[2]; Table 7, day 20, comparison with methotrexate (1 mg/kg)
  arthritis progression index: 0.0
[2]; Table 7, day 22, comparison with methotrexate (1 mg/kg)
  arthritis progression index: 0.0
[2]; Table 7, day 25, comparison with methotrexate (1 mg/kg)
  arthritis progression index: 0.0
[2]; Table 7, day 27, comparison with methotrexate (1 mg/kg)
  arthritis progression index: 1.0
[2]; Table 7, day 29, comparison with methotrexate (1 mg/kg)
  arthritis progression index: 0.8
[2]; Table 7, day 31, comparison with methotrexate (1 mg/kg)
  arthritis progression index: 2.8
[2]; Table 7, day 35, comparison with methotrexate (1 mg/kg)
  arthritis progression index: 3.2
